Assay results as given in patent US9260425B2 (Genetech, Inc., priority 2011, dated 2016).

target: Pim-1 (Homo sapiens (Human), UniProt P11309); assay: Pim kinase binding activity assay (Example 901), PIM-1 enzyme, Caliper microfluidic peptide phosphorylation; assay type: biochemical; details: 20 pM PIM-1, 10 μM ATP, 1 μM FAM-peptide, 90 minutes at room temperature
Procedure, shortened: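 PIM-1 at 20 pM phosphorylated 1 μM FAM-labelled Pim peptide with 10 μM ATP in HEPES pH 7.2, MgCl2, Tween 20 and DTT for 90 min at room temperature. EDTA stopped the reaction, and product and substrate were resolved by microfluidic electrophoresis (ex 488/em 530 nm). Ki was derived from substrate conversion.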

Pim-1, sequence (P11309 whole entry): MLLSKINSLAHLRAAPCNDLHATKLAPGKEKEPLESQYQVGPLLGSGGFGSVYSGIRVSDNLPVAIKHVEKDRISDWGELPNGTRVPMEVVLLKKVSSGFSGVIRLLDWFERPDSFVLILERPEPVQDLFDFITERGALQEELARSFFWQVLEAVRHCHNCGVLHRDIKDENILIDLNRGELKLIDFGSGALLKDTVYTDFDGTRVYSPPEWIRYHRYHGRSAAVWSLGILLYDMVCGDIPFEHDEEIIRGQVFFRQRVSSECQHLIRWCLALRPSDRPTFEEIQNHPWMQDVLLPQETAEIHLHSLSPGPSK

| Ki | Compound |
| --- | --- |
| 65.6 nM | CCn1cc(-c2cc3c(-c4cc(C(F)(F)F)ccn4)n[nH]c3cn2)cn1 [Example 469, 5-(1-ethyl-1H-pyrazol-4-yl)-3-(4-(trifluoromethyl)pyridin-2-yl)-1H-pyrazolo[3,4-c]pyridine] |
| 0.049 nM | CS(=O)(=O)c1cncc(-c2cc3c(-c4cccc(N5CCNCC5)n4)n[nH]c3cn2)c1 [Example 470, 5-(5-(methylsulfonyl)pyridin-3-yl)-3-(6-(piperazin-1-yl)pyridin-2-yl)-1H-pyrazolo[3,4-c]pyridine] |
| 0.073 nM | CCn1cc(-c2cc3c(-c4cccc(N5CCC[C@@H](N)CC5)n4)n[nH]c3cn2)cn1 [Example 471, (R)-1-(6-(5-(1-ethyl-1H-pyrazol-4-yl)-1H-pyrazolo[3,4-c]pyridin-3-yl)pyridin-2-yl)azepan-4-amine] |
| 0.107 nM | CCn1cc(-c2cc3c(-c4cccc(N5CCN(C(C)=O)CC5)n4)n[nH]c3cn2)cn1 [Example 472, 1-(4-(6-(5-(1-ethyl-1H-pyrazol-4-yl)-1H-pyrazolo[3,4-c]pyridin-3-yl)pyridin-2-yl)piperazin-1-yl)ethanone] |
| 0.022 nM | N#CCn1cc(-c2cc3c(-c4cccc(N5CCNCC5)n4)n[nH]c3cn2)cn1 [Example 473, 2-(4-(3-(6-(piperazin-1-yl)pyridin-2-yl)-1H-pyrazolo[3,4-c]pyridin-5-yl)-1H-pyrazol-1-yl)acetonitrile] |
| 4.49 nM | CCn1cc(-c2cc3c(-c4ccc(=O)n(CC5(C(N)=O)CCC5)c4)n[nH]c3cn2)cn1 [Example 475, 1-((5-(5-(1-ethyl-1H-pyrazol-4-yl)-1H-pyrazolo[3,4-c]pyridin-3-yl)-2-oxopyridin-1(2H)-yl)methyl) cyclobutanecarboxamidc] |
| 15.7 nM | CCn1cc(-c2cc3c(-c4cc(OC)ccn4)n[nH]c3cn2)cn1 [Example 476, 5-(1-ethyl-1H-pyrazol-4-yl)-3-(4-methoxypyridin-2-yl)-1H-pyrazolo[3,4-c]pyridine] |
| 0.013 nM | CCc1ccc(-c2n[nH]c3cnc(-c4cnn(CC)c4)cc23)nc1N1CCC[C@H](N)C1 [Example 477, (S)-1-(3-ethyl-6-(5-(1-ethyl-1H-pyrazol-4-yl)-1H-pyrazolo[3,4-c]pyridin-3-yl)pyridin-2-yl)piperidin-3-amine] |
| 0.02 nM | CCn1cc(-c2cc3c(-c4ccc(C(C)C)c(N5CCC[C@H](N)C5)n4)n[nH]c3cn2)cn1 [Example 478, (S)-1-(6-(5-(1-ethyl-1H-pyrazol-4-yl)-1H-pyrazolo[3,4-c]pyridin-3-yl)-3-isopropylpyridin-2-yl)piperidin-3-amine] |
| 0.064 nM | CCn1cc(-c2cc3c(-c4cncc(N5CCNCC5)n4)n[nH]c3cn2)cn1 [Example 479, 5-(1-ethyl-1H-pyrazol-4-yl)-3-(6-(piperazin-1-yl)pyrazin-2-yl)-1H-pyrazolo[3,4-c]pyridine] |
| 0.311 nM | CCn1cc(-c2cc3c(-c4cccc(N5CCN(C6COC6)CC5)n4)n[nH]c3cn2)cn1 [Example 480, 5-(1-ethyl-1H-pyrazol-4-yl)-3-(6-(4-(oxetan-3-yl)piperazin-1-yl)pyridin-2-yl)-1H-pyrazolo[3,4-c]pyridine] |
| 0.034 nM | CCn1cc(-c2cc3c(-c4cccc(N5CCC[C@H](N)CC5)n4)n[nH]c3cn2)cn1 [Example 481, (S)-1-(6-(5-(1-ethyl-1H-pyrazol-4-yl)-1H-pyrazolo[3,4-c]pyridin-3-yl)pyridin-2-yl)azepan-4-amine] |
| 0.147 nM | CCn1cc(-c2cc3c(-c4cccc(N5CCC[C@@H](NC)C5)n4)n[nH]c3cn2)cn1 [Example 482, (R)-1-(6-(5-(1-ethyl-1H-pyrazol-4-yl)-1H-pyrazolo[3,4-c]pyridin-3-yl)pyridin-2-yl)-N-methylpiperidin-3-amine] |
| 0.027 nM | CC(O)c1cncc(-c2cc3c(-c4cccc(N5CCNCC5)n4)n[nH]c3cn2)c1 (stereo not drawn) [Example 483, 1-(5-(3-(6-(piperazin-1-yl)pyridin-2-yl)-1H-pyrazolo[3,4-c]pyridin-5-yl)pyridin-3-yl)ethanol] |
| 11.5 nM | CCn1cc(-c2cc3c(-c4cc(C5CC5)ccn4)n[nH]c3cn2)cn1 [Example 484, 3-(4-cyclopropylpyridin-2-yl)-5-(1-ethyl-1H-pyrazol-4-yl)-1H-pyrazolo[3,4-c]pyridine] |
| 0.022 nM | N[C@H]1CCCN(c2nc(-c3n[nH]c4cnc(-c5cccnc5)cc34)ccc2C2CC2)C1 [Example 485, (S)-1-(3-cyclopropyl-6-(5-(pyridin-3-yl)-1H-pyrazolo[3,4-c]pyridin-3-yl)pyridin-2-yl)piperidin-3-amine] |
| 0.009 nM | Cn1cc(-c2cc3c(-c4ccc(C5CC5)c(N5CCC[C@H](N)C5)n4)n[nH]c3cn2)cn1 [Example 486, (S)-1-(3-cyclopropyl-6-(5-(1-methyl-1H-pyrazol-4-yl)-1H-pyrazolo[3,4-c]pyridin-3-yl)pyridin-2-yl)piperidin-3-amine] |
| 0.106 nM | c1cc(-c2n[nH]c3cnc(-c4cnn(C5CC5)c4)cc23)nc(N2CCNCC2)c1 [Example 487, 5-(1-cyclopropyl-1H-pyrazol-4-yl)-3-(6-(piperazin-1-yl)pyridin-2-yl)-1H-pyrazolo[3,4-c]pyridine] |

| Ki | Compound |
| --- | --- |
| 0.022 nM | FC(F)(F)Cn1cc(-c2cc3c(-c4cccc(N5CCNCC5)n4)n[nH]c3cn2)cn1 [Example 488, 3-(6-(piperazin-1-yl)pyridin-2-yl)-5-(1-(2,2,2-trifluoroethyl)-1H-pyrazol-4-yl)-1H-pyrazolo[3,4-c]pyridine] |
| 0.014 nM | FCCn1cc(-c2cc3c(-c4cccc(N5CCCNCC5)n4)n[nH]c3cn2)cn1 [Example 489, 3-(6-(1,4-diazepan-1-yl)pyridin-2-yl)-5-(1-(2-fluoroethyl)-1H-pyrazol-4-yl)-1H-pyrazolo[3,4-c]pyridine] |
| 0.107 nM | CCn1cc(-c2cc3c(-c4cc(C#N)cc(N5CCCNCC5)n4)n[nH]c3cn2)cn1 [Example 490, 2-(1,4-diazepan-1-yl)-6-(5-(1-ethyl-1H-pyrazol-4-yl)-1H-pyrazolo[3,4-c]pyridin-3-yl)isonicotinonitrile] |
| 0.181 nM | CCn1cc(-c2cc3c(-c4cccc(N5CCNC(C(F)(F)F)CC5)n4)n[nH]c3cn2)cn1 (stereo not drawn) [Example 491, 5-(1-ethyl-1H-pyrazol-4-yl)-3-(6-(5-(trifluoromethyl)-1,4-diazepan-1-yl)pyridin-2-yl)-1H-pyrazolo[3,4-c]pyridine] |
| 23.2 nM | CCn1cc(-c2cc3c(-c4cc(C)ccn4)n[nH]c3cn2)cn1 [Example 492, 5-(1-ethyl-1H-pyrazol-4-yl)-3-(4-methylpyridin-2-yl)-1H-pyrazolo[3,4-c]pyridine] |
| 43.6 nM | CCc1ccnc(-c2n[nH]c3cnc(-c4cnn(CC)c4)cc23)c1 [Example 493, 5-(1-ethyl-1H-pyrazol-4-yl)-3-(4-ethylpyridin-2-yl)-1H-pyrazolo[3,4-c]pyridine] |
| 0.122 nM | CCn1cc(-c2cc3c(-c4cccc(N5CCCCC(O)C5)n4)n[nH]c3cn2)cn1 (stereo not drawn) [Example 494, 1-(6-(5-(1-ethyl-1H-pyrazol-4-yl)-1H-pyrazolo[3,4-c]pyridin-3-yl)pyridin-2-yl)azepan-3-ol] |
| 0.122 nM | Cn1cc(-c2cc3c(-c4cccc(N5C[C@@H](N)C[C@@H](F)C5)n4)n[nH]c3cn2)cn1 [Example 495, (3S,5R)-5-fluoro-1-(6-(5-(1-methyl-1H-pyrazol-4-yl)-1H-pyrazolo[3,4-c]pyridin-3-yl)pyridin-2-yl)piperidin-3-amine] |
| 0.13 nM | OCCn1cc(-c2cc3c(-c4cccc(N5CCNCC5)n4)n[nH]c3cn2)cn1 [Example 496, 2-(4-(3-(6-(piperazin-1-yl)pyridin-2-yl)-1H-pyrazolo[3,4-c]pyridin-5-yl)-1H-pyrazol-1-yl)ethanol] |
| 17.2 nM | CCn1cc(-c2cc3c(-c4cc(CO)ccn4)n[nH]c3cn2)cn1 [Example 498, (2-(5-(1-ethyl-1H-pyrazol-4-yl)-1H-pyrazolo[3,4-c]pyridin-3-yl)pyridin-4-yl)methanol] |
| 54.1 nM | C=C(C)c1ccnc(-c2n[nH]c3cnc(-c4cnn(CC)c4)cc23)c1 [Example 500, 5-(1-ethyl-1H-pyrazol-4-yl)-3-(4-(prop-1-en-2-yl)pyridin-2-yl)-1H-pyrazolo[3,4-c]pyridine] |
| 0.103 nM | CCn1cc(-c2cc3c(-c4cccc(N5CCCC[C@H](O)C5)n4)n[nH]c3cn2)cn1 [Example 501, (S)-1-(6-(5-(1-ethyl-1H-pyrazol-4-yl)-1H-pyrazolo[3,4-c]pyridin-3-yl)pyridin-2-yl)azepan-3-ol] |
| 0.139 nM | CCn1cc(-c2cc3c(-c4cccc(N5CCCC[C@@H](O)C5)n4)n[nH]c3cn2)cn1 [Example 502, (R)-1-(6-(5-(1-ethyl-1H-pyrazol-4-yl)-1H-pyrazolo[3,4-c]pyridin-3-yl)pyridin-2-yl)azepan-3-ol] |
| 0.0294 nM | C[C@H]1CN(c2cccc(-c3n[nH]c4cnc(-c5cnn(CCF)c5)cc34)n2)CCN1 [Example 503, (S)-5-(1-(2-fluoroethyl)-1H-pyrazol-4-yl)-3-(6-(3-methylpiperazin-1-yl)pyridin-2-yl)-1H-pyrazolo[3,4-c]pyridine] |
| 0.076 nM | CCn1cc(-c2cc3c(-c4cccc(N5CCNCC(F)C5)n4)n[nH]c3cn2)cn1 (stereo not drawn) [Example 504, 5-(1-ethyl-1H-pyrazol-4-yl)-3-(6-(6-fluoro-1,4-diazepan-1-yl)pyridin-2-yl)-1H-pyrazolo[3,4-c]pyridine] |
| 0.021 nM | CCn1cc(-c2cc3c(-c4ccc(C5CC5)c(N5CCC[C@H](N)C5)n4)n[nH]c3cn2)cn1 [Example 506, (S)-1-(3-cyclopropyl-6-(5-(1-ethyl-1H-pyrazol-4-yl)-1H-pyrazolo[3,4-c]pyridin-3-yl)pyridin-2-yl)piperidin-3-amine] |
| 29.8 nM | CCn1cc(-c2cc3c(-c4cc(C(C)C)ccn4)n[nH]c3cn2)cn1 [Example 507, 5-(1-ethyl-1H-pyrazol-4-yl)-3-(4-isopropylpyridin-2-yl)-1H-pyrazolo[3,4-c]pyridine] |
| 10.6 nM | CCn1cc(-c2cc3c(-c4ccccn4)n[nH]c3cn2)cn1 [Example 508, 5-(1-ethyl-1H-pyrazol-4-yl)-3-(pyridin-2-yl)-1H-pyrazolo[3,4-c]pyridine] |
